Patent US4996227A, “3-(heteroarylalkyene)- and 3-(arylalkylene)-2,4(3H,5H)-heterocyclic diones as cancer chemotherapy drugs” (priority 1989, dated 1991)

Experiments:
Format in all cases: cell-based
[1] = test system: human tumor H5340 **; experiment: Human Tumor Stem Cell Assay, colony growth after one hour exposure; conditions: 1 h
Text: (§1) The in vitro Human Tumor Stem Cell Assay procedure described as follows has several advantages for testing the effectiveness of chemotherapy drugs such as the 3-(heteroarylalkylene)-2,4(3H,5H)-furandiones. The first advantage is that fresh tumor cells from a variety of tumor types were used rather than a small number of cell lines which have undergone severe selection pressures as they are passed in vitro. The second advantage is that only the anchorage-independent tumor cells will form colonies in soft agar so that any non-malignant cells present in the sample will not form colonies. Perhaps the most important advantage, however, is the emphasis on cells which have the ability to form colonies. These cells, which are generally called stem cells, usually comprise only a small percentage of all tumor cells. They are thought to be the most important cells for growth and distant spread of a tumor. In particular, these cells have the potential to leave the primary tumor and form new tumors at distant sites (called metastases). It is the effectiveness against these very important stem cells that the Human Tumor Stem Cell Assay measures.
(§2) One of the 3-(heteroarylalkylene)-2,4(3H,5H)-furandione compounds, 3-[(5-methyl-2-thienyl) methylene]-2,4(3H,5H)-furandione was evaluated against a series of 10 human tumors in the in vitro Human Tumor Cell Assay, along with conventional and standard chemotherapy agents.
(§3) In the procedure, a single cell suspension was prepared from tumors excised from patients during therapeutic or diagnostic surgical procedures. The human tumor cells were exposed to known anticancer drugs or to [(5-methyl-2-thienyl)methylene]-2,4 (3H, 5H)-furandione at a low (0.2 mcg/ml) or a high (1.0 mcg/ml) concentration for one hour. […] The suspension was washed with tissue culture medium to remove the drug.
(§4) The suspension was then cultured in a double soft agar suspension. Control cells which had been treated identically, except for exposure to the drugs, were also cultured. After one to two weeks, both the tumor cells and the control cells formed colonies in the soft agar which were enumerated under a microscope. The number of colonies grown from the drug-treated cells was compared to the number of colonies grown from the control cells, and the percentage growth after exposure to the drug was calculated.
(§5) The results are illustrated in Table 1, wherein the various numbers indicate the percentage of growth. For example, a small number like 6 means that the number of colonies is only 6% of the number without addition of the compound. On the other hand, a large number like 120 means that the number of colonies is 20% greater with the compound than without.
(§6) Of the nine tumors for which the higher concentration (1.0 mcg/ml) of the furandione was used, five gave inhibition of colony growth corresponding to borderline sensitive (30-50% growth) and four gave inhibition corresponding to sensitivity (0-30% growth). Clinical drugs are normally tested at 10% of their peak plasma concentration. For the standard chemotherapy drugs shown in Table 1, the low concentration (LO) corresponds to this 10% level, and the high concentration (HI) is at 50% of the peak plasma concentration. Of the same nine tumors, only two would have been rated as sensitive or borderline sensitive to any of the other clinical drugs tested.

[2] = test system: human tumor H5315 BREAST; experiment: as above; conditions: LO: furandione 0.2 mcg/ml; standard drugs 10% of peak plasma concentration; 1 h
Text: as §1, §2, §3, §4, §5, §6

[3] = test system: human tumor H5331 OVARY; experiment: as above; conditions: 1 h
Text: as §1, §2, §3, §4, §5, §6

[4] = test system: human tumor H5319 BREAST; experiment: as above; conditions: 1 h
Text: as §1, §2, §3, §4, §5, §6

[5] = test system: human tumor H5337 COLON; experiment: as above; conditions: 1 h
Text: as §1, §2, §3, §4, §5, §6

[6] = test system: human tumor H5318 OVARY; experiment: as above; conditions: 1 h
Text: as §1, §2, §3, §4, §5, §6

[7] = test system: human tumor H5330 THYMUS; experiment: as above; conditions: HI: furandione 1.0 mcg/ml; standard drugs 50% of peak plasma concentration; 1 h
Text: as §1, §2, §3, §4, §5, §6

[8] = test system: human tumor H5325 SARCOMA; experiment: as above; conditions: 1 h
Text: as §1, §2, §3, §4, §5, §6

[9] = test system: human tumor H5322 STOMACH; experiment: as above; conditions: 1 h
Text: as §1, §2, §3, §4, §5, §6

[10] = test system: K562 cells (human chronic granulocytic leukemia); experiment: K562 human leukemia cell suspension culture, cell concentration; conditions: 1 ug/ml
Method: In this example, 1 mcg/ml of 3[[5-methyl-2-thienyl]methylene]2, 4 (3H, 5H) furandione was compared to 1 mcg/ml of 3[[3-methyl-2-thienyl]methylene]2, 4 (3H, 5H) furandione.
A conventionally available cell line (K562) derived from human chronic granulocytic leukemia was employed in an in vitro procedure. The leukemia cell line was cultured in a suspension of RPMI 1640 plus 10% fetal calf serum. All initial cell concentrations for the cultures were 0.65 times 10^5 cells/ml. Four separate suspension cultures were employed with the first suspension culture having no additions. The second suspension culture included 100 microliters of the solvent DMSO per 10 ml of culture (control). The third culture contained 1 ug/ml of 3[[5-methyl-2 thienyl]methylene]-2, 4 (3H, 5H) furandione and the fourth culture contained 1 ug/ml of 3[[3-methyl-2-thienyl]methylene]-2, 4 (3H, 5H) furandione. The cell concentration of each of the four cultures was determined. After three days and again after five days.

[11] = test system: human tumor H5349 BREAST; experiment: Human Tumor Stem Cell Assay, colony growth after one hour exposure; conditions: 1 h
Text: as §1, §2, §3, §4, §5, §6

[12] = HI: furandione 1.0 mcg/ml, standard drugs 50% of peak plasma concentration
[13] = LO: furandione 0.2 mcg/ml, standard drugs 10% of peak plasma concentration

Compound	percentage of growth (colonies vs control) [1, 12]	percentage of growth (colonies vs control) [2]	percentage of growth (colonies vs control) [3, 12]	percentage of growth (colonies vs control) [4, 12]	percentage of growth (colonies vs control) [5, 12]	percentage of growth (colonies vs control) [6, 12]	percentage of growth (colonies vs control) [7]	percentage of growth (colonies vs control) [8, 12]	percentage of growth (colonies vs control) [9, 12]	percentage of growth (colonies vs control) [11, 12]	percentage of growth (colonies vs control) [8, 13]	percentage of growth (colonies vs control) [9, 13]	percentage of growth (colonies vs control) [6, 13]	also measured
CC[C@]1(O)C[C@H]2CN(CCc3c([nH]c4ccccc34)[C@@](C(=O)OC)(c3cc4c(cc3OC)N(C=O)[C@H]3[C@@](O)(C(=O)OC)[C@H](OC(C)=O)[C@]5(CC)C=CCN6CC[C@]43[C@@H]65)C2)C1 [VCR, VINCRISTINE]	113%													
O=NN(CCCl)C(=O)NCCCl [BCNU, BISCHLORETHYLNITROSOUREA]		108%	111%	122%	88%	93%	74%							
Nc1nc(=S)c2[nH]cnc2[nH]1 [Compound 6TG, 6THOQUANINE]	50%							69%	122%					percentage of growth (colonies vs control) [1, 13]: 75%
CO[C@@]12[C@H](COC(N)=O)C3=C(C(=O)C(C)=C(N)C3=O)N1C[C@@H]1N[C@@H]12 [MTC, MITOMYCIN C]		59%	102%	72%		90%	90%		69%					
CCOC(=O)NC1=C(N2CC2)C(=O)C(NC(=O)OCC)=C(N2CC2)C1=O [AZO, AZIRIDIMYLBENYOQUINONE]	107%													
Cc1ccsc1C=C1C(=O)COC1=O [3 methyl, 3[[3-methyl-2-thienyl]methylene]-2, 4 (3H, 5H) furandione]														effect on leukemia culture [10]: also shows a decrease in the leukemia cell concentration culture, but the decrease is not as great as with the other compound; Cell Conc. ([10]; 3 Days): 50000 mL⁻¹; Cell Conc. ([10]; 5 Days): 150000 mL⁻¹; cell concentration vs 5-methyl analog ([10]; after five days): slightly higher cell concentration than the 5-methyl analog
COc1cccc2c1C(=O)c1c(O)c3c(c(O)c1C2=O)C[C@@](O)(C(=O)CO)C[C@@H]3O[C@H]1C[C@H](N)[C@H](O)[C@H](C)O1 [ADR, ADRIAMYCIN]		75%	105%	100%		60%	98%	11%	65%	82%	22%	55%	76%	
CC[C@]1(O)C[C@@H]2CN(CCc3c([nH]c4ccccc34)[C@@](C(=O)OC)(c3cc4c(cc3OC)N(C)[C@H]3[C@@](O)(C(=O)OC)[C@H](OC(C)=O)[C@]5(CC)C=CCN6CC[C@]43[C@@H]65)C2)C1 [VBL, VINBLASTINE]	44%	50%	45%	6%	67%	60%		8%	35%	65%	9%	40%	39%	percentage of growth (colonies vs control) [11, 13]: 70%; percentage of growth (colonies vs control) [3, 13]: 115%; percentage of growth (colonies vs control) [1, 13]: 79%; percentage of growth (colonies vs control) [4, 13]: 5%; percentage of growth (colonies vs control) [5, 13]: 60%
N.N.[Cl][Pt][Cl] [CPDD, CISPLATIN]	125%		69%		41%	38%	75%		56%	54%	62%	63%	109%	percentage of growth (colonies vs control) [11, 13]: 48%; percentage of growth (colonies vs control) [3, 13]: 87%; percentage of growth (colonies vs control) [5, 13]: 98%
